Data: patent US6710048B2, “Pyrazine derivatives as modulators of tyrosine kinases” (Ortho-McNeil Pharmaceutical, Inc., priority 2000, dated 2004)

Experiments:
Assay type in all cases: cell-based
[1] = test system: HCT-116 colon carcinoma; test: Cell proliferation assay (14C-thymidine incorporation), HCT-116; conditions: Homo sapiens, read-out: Inhibition of cell proliferation IC50
Protocol: (§1) The ability of a test compound to inhibit the proliferation of cell growth was determined by measuring incorporation of ^14C-labelled thymidine into newly synthesized DNA within the cells. This method was used on cell lines derived from carcinomas originating from several tissues such as HeLa cervical adenocarcinoma (American Type Culture Collection (ATCC), Virginia, Cat. #CCL-2), A375 malignant melanoma (ATCC CRL-1619), SK-OV-3 ovarian adenocarcinoma (ATCC HTB-77) HCT-116 colon carcinoma (CCL-247) and PC-3 prostate adenocarcinoma (ATCC CRL-1435). The method was also used on primary cells such as HUVEC endothelial cells (ATCC CRL-1730). In this way the effect of a compound on cell growth of cells with many different phenotypes can be determined. Cells were trypsinized and counted and 3000-8000 cells were added to each well of a 96-well CytoStar tissue culture treated scintillating microplate (Amersham #RPNQ0160) in complete medium in a volume of 100 μl. Cells were incubated for 24 hours in complete medium at 37° C. in an atmosphere containing 5% CO2.
(§2) Next, 1 μl of test compound in 100% DMSO was added to the wells of the plate. DMSO only was added to control wells. Cells were incubated for 24 more hours in complete medium at 37° C. in an atmosphere containing 5% CO2. Methyl ^14C-thymidine 56 mCi/mmol (NEN #NEC568 or Amersham #CFA532) was diluted in complete medium and 0.2 μCi/well was added to each well of the CytoStar plate in a volume of 20 μl. The plate was incubated for 24 hours at 37° C. plus 5% CO2 in drug plus ^14C-thymidine. The contents of the plate were discarded into a ^14C radioactive waste container by inverting the plate and the plate was washed twice with 200 μl PBS. 200 μl of PBS is then added to each well. The top of the plate was sealed with a transparent plate sealer and a white plate backing sealer (Packard #6005199) was applied to the bottom of the plate. The degree of Methyl ^14C-thymidine incorporation was quantified on a Packard Top Count.

[2] = test system: HeLa cervical adenocarcinoma; test: Cell proliferation assay (14C-thymidine incorporation), HeLa; conditions: Homo sapiens, read-out: Inhibition of cell proliferation IC50
Protocol: as §1, §2

[3] = test system: SK-OV-3 ovarian adenocarcinoma; test: Cell proliferation assay (14C-thymidine incorporation), SK-OV-3; conditions: Homo sapiens, read-out: Inhibition of cell proliferation IC50
Protocol: as §1, §2

[4] = test system: MDA-MB-231; test: Cell proliferation assay (14C-thymidine incorporation), MDA-MB-231; conditions: Homo sapiens, read-out: Inhibition of cell proliferation IC50
Protocol: as §1, §2

[5] = test system: PC-3 prostate adenocarcinoma; test: Cell proliferation assay (14C-thymidine incorporation), PC-3; conditions: Homo sapiens, read-out: Inhibition of cell proliferation IC50
Protocol: as §1, §2

[6] = test system: rat aortic ring; test: Rat aortic ring assay (vascular sprouting); conditions: 192 h; rat aortic ring in fibrin gel, analyzed on day 8; read-out: Inhibition of Vascular Sprouting (IC50μM)
Protocol: The rat aortic ring assay is a rapid in vitro assay that measures new capillary growth in an environment that closely approximates the in vivo conditions of the extracellular matrix. The assay was performed as described (Nicosia, R F and Ottinetti, A. Growth of new microvessels in serum-free matrix culture of rat aorta. Lab Invest., 63: 115-122, 1990). Thoracic aortas were removed from 1 to 2-month old male Sprague-Dawley rats and transferred to a culture dish containing serum-free MCDB 131 medium (Clonetics). Extraneous tissue was removed and the aorta was sectioned into rings approximately 1 mm long and rinsed 8-10 times in serum-free medium. A solution of sterile 1.5% agarose (Type VI-A, Sigma, St. Louis, Mo.) was added to the wells of a 6-well plate. The wells were filled with clotting fibrinogen solution and an aortic ring was transferred into the well positioned with the lumen oriented horizontally in the center of the fibrin gel solution. The fibrinogen solution was prepared in MCDB 131 medium with bovine fibrinogen at 3 mg/ml. Clotting was initiated by adding 20 μl of a 50 NIH units/ml bovine thrombin solution and the fibrin gel generally formed within 30 seconds. The fibrinolytic inhibitor amino-n-caproic acid was added to the culture medium at 300 µg/ml (microgram per milliliter) for the first four days of the assay and at 50 μg/ml from day 5 to day 8. Once the fibrin gel solution solidified, 5 ml of serum-free MCDB 131 media containing 100 μg/ml penicillin, 100 μg/ml streptomycin and 0.25 μg/ml amphotericin B was added to each well. Explants were incubated at 37° C. with 5% CO2 for 8 days. Medium was replaced every 2-3 days and the assay was analyzed on day 8. Inhibition of vascular sprouting was measured by adding test compounds diluted in DMSO.

Row | IC50 [1] [µM] | IC50 [2] [µM] | IC50 [3] [µM] | IC50 [4] [µM] | IC50 [5] [µM] | IC50 [6] [µM] | SMILES
1 | 8.35 | 4.56 | 3 | 3.26 | 11.3 | 0.099 | OCCCNc1cncc(-c2cncc(Nc3cccc(Cl)c3)n2)c1 [Cmd 4, 3-[[5-[6-[(3-chlorophenyl)amino]pyrazinyl]-3-pyridinyl]amino]-1-propanol]
2 | 23.5 | 86.4 | 14.6 | 27.6 | 67.6 | 0.83 | OCCCCNc1cncc(-c2cncc(Nc3cccc(Cl)c3)n2)c1 [Cmd 32, 4-[[5-[6-[(3-chlorophenyl)amino]pyrazinyl]-3-pyridinyl]amino]-1-butanol]
3 | 4.97 | 5.7 |  | 2.57 | 2.58 |  | Clc1cccc(Nc2cncc(-c3cncc(NCCCc4cccnc4)c3)n2)c1 [Cmd 72, N-(3-chlorophenyl)-6-[5-[[3-(3-pyridinyl)propyl]amino]-3-pyridinyl]-2-pyrazinamine]

Row | SMILES | IC50 [1] [µM] | IC50 [2] [µM] | IC50 [3] [µM] | IC50 [4] [µM] | IC50 [5] [µM] | IC50 [6] [µM]
4 | CN(C)CCCNc1cncc(-c2cncc(Nc3cccc(Cl)c3)n2)c1 [Cmd 35, N^1-[5-[6-[(3-chlorophenyl)amino]pyrazinyl]-3-pyridinyl]-N^3,N^3-dimethyl-1,3-propanediamine] | > 100 | > 100 | 19.3 | 98.3 | > 100 | > 1
